According to patent publication US9944646B2, “Bicyclic azaheterocyclobenzylamines as PI3K inhibitors” (Incyte Corporation, priority 2012, dated 2018):
pIC50: −log10 of the molar value. Counter-ions that a name gives are not always drawn.

What follows are compounds tested against PI3Kδ (Homo sapiens (Human), UniProt O00329) (assay: PI3K Enzyme Assay (Example A2), [γ-33P]ATP filter plate).
Chain of PI3Kδ (O00329 whole entry): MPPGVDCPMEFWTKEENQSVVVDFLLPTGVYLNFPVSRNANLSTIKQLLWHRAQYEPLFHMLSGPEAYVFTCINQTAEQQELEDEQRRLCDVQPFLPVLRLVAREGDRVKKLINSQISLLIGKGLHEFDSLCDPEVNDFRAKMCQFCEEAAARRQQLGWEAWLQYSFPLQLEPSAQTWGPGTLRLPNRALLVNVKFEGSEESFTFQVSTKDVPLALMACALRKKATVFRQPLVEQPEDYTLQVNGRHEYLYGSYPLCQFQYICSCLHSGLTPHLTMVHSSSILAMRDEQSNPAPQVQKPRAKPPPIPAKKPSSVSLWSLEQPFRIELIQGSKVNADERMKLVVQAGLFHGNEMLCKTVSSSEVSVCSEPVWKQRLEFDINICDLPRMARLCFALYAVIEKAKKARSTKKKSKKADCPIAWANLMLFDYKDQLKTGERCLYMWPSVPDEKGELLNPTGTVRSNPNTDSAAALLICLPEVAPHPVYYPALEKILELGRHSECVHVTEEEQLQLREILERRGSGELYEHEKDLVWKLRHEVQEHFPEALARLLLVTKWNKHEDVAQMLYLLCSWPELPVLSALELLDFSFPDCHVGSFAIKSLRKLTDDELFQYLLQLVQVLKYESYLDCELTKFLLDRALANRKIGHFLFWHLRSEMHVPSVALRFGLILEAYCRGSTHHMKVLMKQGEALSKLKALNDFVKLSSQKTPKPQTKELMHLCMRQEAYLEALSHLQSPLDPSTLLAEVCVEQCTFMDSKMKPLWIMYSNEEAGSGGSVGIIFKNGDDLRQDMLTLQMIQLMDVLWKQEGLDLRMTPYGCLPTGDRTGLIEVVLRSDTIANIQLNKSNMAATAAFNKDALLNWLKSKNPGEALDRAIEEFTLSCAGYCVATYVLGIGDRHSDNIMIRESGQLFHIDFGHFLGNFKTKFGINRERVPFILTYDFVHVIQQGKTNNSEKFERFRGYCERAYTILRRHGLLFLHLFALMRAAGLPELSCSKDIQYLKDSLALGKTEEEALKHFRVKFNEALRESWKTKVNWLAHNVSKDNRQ
Chain of PI3Kδ (P27986 whole entry partner): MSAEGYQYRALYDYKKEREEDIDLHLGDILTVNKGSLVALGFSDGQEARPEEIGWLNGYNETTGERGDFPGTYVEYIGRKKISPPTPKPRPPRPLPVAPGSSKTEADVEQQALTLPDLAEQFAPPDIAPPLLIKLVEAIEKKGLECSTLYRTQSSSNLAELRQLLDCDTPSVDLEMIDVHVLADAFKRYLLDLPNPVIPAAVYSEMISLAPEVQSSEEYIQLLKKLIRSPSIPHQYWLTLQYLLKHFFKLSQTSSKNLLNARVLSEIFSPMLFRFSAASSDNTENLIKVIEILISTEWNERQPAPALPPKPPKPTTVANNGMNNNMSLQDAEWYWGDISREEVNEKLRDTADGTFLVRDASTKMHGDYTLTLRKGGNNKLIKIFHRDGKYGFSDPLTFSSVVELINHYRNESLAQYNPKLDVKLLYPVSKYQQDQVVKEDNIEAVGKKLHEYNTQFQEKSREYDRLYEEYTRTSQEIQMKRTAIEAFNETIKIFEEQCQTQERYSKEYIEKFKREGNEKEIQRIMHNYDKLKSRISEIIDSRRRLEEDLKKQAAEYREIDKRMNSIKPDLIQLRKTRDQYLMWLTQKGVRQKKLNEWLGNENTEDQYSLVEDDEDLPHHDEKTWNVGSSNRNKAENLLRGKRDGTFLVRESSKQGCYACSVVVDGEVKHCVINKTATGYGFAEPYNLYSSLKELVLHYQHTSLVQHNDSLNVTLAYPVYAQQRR
Type: biochemical
Description: Example A2: PI3K Enzyme Assay
Lipid kinase substrate, phosphoinositol-4,5-bisphosphate (PIP2), are purchased from Echelon Biosciences (Salt Lake City, Utah). PI3K isoforms α, β, δ and γ are purchased from Millipore (Bedford, Mass.). ATP, MgCl2, DTT, EDTA, MOPS and CHAPS are purchased from Sigma-Aldrich (St. Louis, Mo.).
The kinase reaction are conducted in clear-bottom 96-well plate from Thermo Fisher Scientific in a final volume of 24 μL. Inhibitors are first diluted serially in DMSO and added to the plate wells before the addition of other reaction components. The final concentration of DMSO in the assay is 0.5%. The PI3K assays are carried out at room temperature in 20 mM MOPS, pH 6.7, 10 mM MgCl2, 5 mM DTT and CHAPS 0.03%. The reaction mixture is prepared containing 50 µM PIP2, kinase and varying concentration of inhibitors. Reactions are initiated by the addition of ATP containing 2.2 μCi [γ-^33P]ATP to a final concentration of 1000 μM. The final concentration of PI3K isoforms α, β, δ and γ in the assay were 1.3, 9.4, 2.9 and 10.8 nM, respectively. Reactions are incubated for 180 minutes and terminated by the addition of 100 μL of 1 M potassium phosphate pH 8.0, 30 mM EDTA quench buffer. A 100 μL aliquot of the reaction solution are then transferred to 96-well Millipore MultiScreen IP […] PVDF filter plate (The filter plate is prewetted with 200 μL 100% ethanol, distilled water, and 1 M potassium phosphate pH 8.0, respectively). The filter plate is aspirated on a Millipore Manifold under vacuum and washed with 18×200 μL wash buffer containing 1 M potassium phosphate pH 8.0 and 1 mM ATP. After drying by aspiration and blotting, the plate is air dried in an incubator at 37° C. overnight. Packard TopCount adapter (Millipore) is then attached to the plate followed with addition of 120 μL Microscint 20 scintillation cocktail (Perkin Elmer) in each well. After the plate sealing, the radioactivity of the product is determined by scintillation counting on Topcount (Perkin-Elmer). IC50 determination is performed by fitting the curve of percent control activity versus the log of the inhibitor concentration using the GraphPad Prism 3.0 software.
`CC(=O)N1CC(N2CCOc3c(C(C)n4nc(C)c5c(N)ncnc54)cc(Cl)c(C#N)c3C2)C1` (stereo not shown) [Example 46, 4-(1-Acetylazetidin-3-yl)-9-[1-(4-amino-3-methyl-1H-pyrazolo[3,4-d]pyrimidin-1-yl)ethyl]-7-chloro-2,3,4,5-tetrahydro-1,4-benzoxazepine-6-carbonitrile] was tested, and the pIC50 was at least 7.00. `Cc1nn(C(C)c2cc(Cl)c(C#N)c3c2OC(C)CN(CC#N)C3)c2ncnc(N)c12` (single isomer, unassigned) [Example 107, 9-[1-(4-amino-3-methyl-1H-pyrazolo[3,4-d]pyrimidin-1-yl)ethyl]-7-chloro-4-(cyanomethyl)-2-methyl-2,3,4,5-tetrahydro-1,4-benzoxazepine-6-carbonitrile] showed a pIC50 of at least 7.00. For `Cc1nn(C(C)c2cc(Cl)c(C#N)c3c2OC(C)CN(CCO)C3)c2ncnc(N)c12` (single isomer, unassigned) [Example 64, 9-[1-(4-Amino-3-methyl-1H-pyrazolo[3,4-d]pyrimidin-1-yl)ethyl]-7-chloro-4-(2-hydroxyethyl)-2-methyl-2,3,4,5-tetrahydro-1,4-benzoxazepine-6-carbonitrile], the pIC50 was 6.30 to 7.00. With `CNC(=O)C1CC(N2Cc3c(C#N)c(Cl)cc(C(C)n4nc(C)c5c(N)ncnc54)c3OC(C)C2)C1` (single isomer, unassigned) [Example 114, 3-[9-[1-(4-amino-3-methyl-1H-pyrazolo[3,4-d]pyrimidin-1-yl)ethyl]-7-chloro-6-cyano-2-methyl-2,3-dihydro-1,4-benzoxazepin-4(5H)-yl]-N-methylcyclobutanecarboxamide] the pIC50 was at least 7.00. `Cc1nn(C(C)c2cc(Cl)c(F)c3c2OC(C)CN(C2CN(C(N)=O)C2)C3)c2ncnc(N)c12` (single isomer, unassigned) [Example 84, 3-[9-[1-(4-amino-3-methyl-1H-pyrazolo[3,4-d]pyrimidin-1-yl)ethyl]-7-chloro-6-fluoro-2-methyl-2,3-dihydro-1,4-benzoxazepin-4(5H)-yl]azetidine-1-carboxamide] gave a pIC50 of at least 7.00. For `Cc1nn([C@@H](C)c2cc(Cl)c(F)c3c2O[C@@H](C)CN(C2CN(C[C@@H](C)O)C2)C3)c2ncnc(N)c12` [Example 86, (2R)-1-{3-[(2S)-9-[(1S)-1-(4-amino-3-methyl-1H-pyrazolo[3,4-d]pyrimidin-1-yl)ethyl]-7-chloro-6-fluoro-2-methyl-2,3-dihydro-1,4-benzoxazepin-4(5H)-yl]azetidin-1-yl}propan-2-ol], the pIC50 was at least 7.00. `CCC1CN(CCO)Cc2c(C#N)c(Cl)cc(C(C)n3nc(C)c4c(N)ncnc43)c2O1` (single isomer, unassigned) [Example 69, 9-[1-(4-Amino-3-methyl-1H-pyrazolo[3,4-d]pyrimidin-1-yl)ethyl]-7-chloro-2-ethyl-4-(2-hydroxyethyl)-2,3,4,5-tetrahydro-1,4-benzoxazepine-6-carbonitrile] was tested, and the pIC50 was at least 7.00. Work on `CCNC(=O)N1CC(N2Cc3c(C#N)c(Cl)cc(C(C)n4nc(C)c5c(N)ncnc54)c3OC(C)C2)C1` (single isomer, unassigned) [Example 97, 3-[9-[1-(4-amino-3-methyl-1H-pyrazolo[3,4-d]pyrimidin-1-yl)ethyl]-7-chloro-6-cyano-2-methyl-2,3-dihydro-1,4-benzoxazepin-4(5H)-yl]-N-ethylazetidine-1-carboxamide] yielded a pIC50 of at least 7.00. `Cc1nn(C(C)c2cc(Cl)c(C#N)c3c2O[C@@H](C)CN(C2CN(CCO)C2)C3)c2ncnc(N)c12` (stereo partly drawn) [Example 56, (2S)-9-[1-(4-Amino-3-methyl-1H-pyrazolo[3,4-d]pyrimidin-1-yl)ethyl]-7-chloro-4-[1-(2-hydroxyethyl)azetidin-3-yl]-2-methyl-2,3,4,5-tetrahydro-1,4-benzoxazepine-6-carbonitrile] gave a pIC50 of at least 7.00. In the case of `Cc1nn([C@@H](C)c2cc(Cl)c(F)c3c2O[C@@H](C)CN(C2CN(C[C@H](C)O)C2)C3)c2ncnc(N)c12` [Example 85, (2S)-1-{3-[(2S)-9-[(1S)-1-(4-amino-3-methyl-1H-pyrazolo[3,4-d]pyrimidin-l-yl)ethyl]-7-chloro-6-fluoro-2-methyl-2,3-dihydro-1,4-benzoxazepin-4(5H)-yl]azetidin-1-yl}propan-2-ol], the pIC50 was at least 7.00. In the case of `Cc1nn(C(C)c2cc(Cl)c(F)c3c2O[C@@H](C)CN(C2CN(CC(N)=O)C2)C3)c2ncnc(N)c12` (single isomer, unassigned) [Example 87], the pIC50 was 6.30 to 7.00. With `Cc1nn(C(C)c2cc(Cl)c(C#N)c3c2OC(C)CN(CC(C)(C)O)C3)c2ncnc(N)c12` (single isomer, unassigned) [Example 66, 9-[1-(4-Amino-3-methyl-1H-pyrazolo[3,4-d]pyrimidin-1-yl)ethyl]-7-chloro-4-(2-hydroxy-2-methylpropyl)-2-methyl-2,3,4,5-tetrahydro-1,4-benzoxazepine-6-carbonitrile] the pIC50 was at least 7.00. For `Cc1nn(C(C)c2cc(Cl)c(C#N)c3c2OC(C)CN(CC#N)C3)c2ncnc(N)c12` (single isomer, unassigned) [Example 108, 9-[1-(4-amino-3-methyl-1H-pyrazolo[3,4-d]pyrimidin-1-yl)ethyl]-7-chloro-4-(cyanomethyl)-2-methyl-2,3,4,5-tetrahydro-1,4-benzoxazepine-6-carbonitrile], the pIC50 was at least 7.00. For `Cc1nn(C(C)c2cc(Cl)c(C#N)c3c2OC(C)CN(C2CN(S(C)(=O)=O)C2)C3)c2ncnc(N)c12` (single isomer, unassigned) [Example 93, 9-[1-(4-amino-3-methyl-1H-pyrazolo[3,4-d]pyrimidin-1-yl)ethyl]-7-chloro-2-methyl-4-[1-(methylsulfonyl)azetidin-3-yl]-2,3,4,5-tetrahydro-1,4-benzoxazepine-6-carbonitrile], the pIC50 was at least 7.00. `Cc1nn(C(C)c2cc(Cl)c(C#N)c3c2OC(C)CN(CC(N)=O)C3)c2ncnc(N)c12` (single isomer, unassigned) [Example 110, 2-[9-[1-(4-amino-3-methyl-1H-pyrazolo[3,4-d]pyrimidin-1-yl)ethyl]-7-chloro-6-cyano-2-methyl-2,3-dihydro-1,4-benzoxazepin-4(5H)-yl]acetamide] gave a pIC50 of at least 7.00. In the case of `COCCN1Cc2c(C#N)c(Cl)cc(C(C)n3nc(C)c4c(N)ncnc43)c2OC(C)C1` (single isomer, unassigned) [Example 111, 9-[1-(4-amino-3-methyl-1H-pyrazolo[3,4-d]pyrimidin-1-yl)ethyl]-7-chloro-4-(2-methoxyethyl)-2-methyl-2,3,4,5-tetrahydro-1,4-benzoxazepine-6-carbonitrile], the pIC50 was at least 7.00. Work on `Cc1nn(C(C)c2cc(Cl)c(F)c3c2OC(C)CN(S(C)(=O)=O)C3)c2ncnc(N)c12` (single isomer, unassigned) [Example 39, 1-{1-[7-Chloro-6-fluoro-2-methyl-4-(methylsulfonyl)-2,3,4,5-tetrahydro-1,4-benzoxazepin-9-yl]ethyl}-3-methyl-1H-pyrazolo[3,4-d]pyrimidin-4-amine] yielded a pIC50 of under 6.10. With `Cc1nn(C(C)c2cc(Cl)c(C#N)c3c2OC(C)CN(C2CN(CCO)C2)C3)c2ncnc(N)c12` (single isomer, unassigned) [Example 103, 9-[1-(4-amino-3-methyl-1H-pyrazolo[3,4-d]pyrimidin-1-yl)ethyl]-7-chloro-4-[1-(2-hydroxyethyl)azetidin-3-yl]-2-methyl-2,3,4,5-tetrahydro-1,4-benzoxazepine-6-carbonitrile] the pIC50 was at least 7.00. `Cc1nn(C(C)c2cc(Cl)c(F)c3c2OC(C)CN(C[C@@H](C)O)C3)c2ncnc(N)c12` (single isomer, unassigned) [Example 77] showed a pIC50 of at least 7.00. `Cc1nn(C(C)c2cc(Cl)c(C#N)c3c2OCCN(C2CN(CCO)C2)C3)c2ncnc(N)c12` (stereo not shown) [Example 47, 9-[1-(4-amino-3-methyl-1H-pyrazolo[3,4-d]pyrimidin-1-yl)ethyl]-7-chloro-4-[1-(2-hydroxyethyl)azetidin-3-yl]-2,3,4,5-tetrahydro-1,4-benzoxazepine-6-carbonitrile] was tested, and the pIC50 was at least 7.00. In the case of `Cc1nn(C(C)c2cc(Cl)c(F)c3c2O[C@@H](C)CN(C2CC(C(=O)O)C2)C3)c2ncnc(N)c12` (stereo partly shown) [Example 41, 3-[9-[1-(4-Amino-3-methyl-1H-pyrazolo[3,4-d]pyrimidin-1-yl)ethyl]-7-chloro-6-fluoro-2-methyl-2,3-dihydro-1,4-benzoxazepin-4(5H)-yl]cyclobutanecarboxylic acid trifluoroacetate], the pIC50 was at least 7.00. `Cc1nn(C(C)c2cc(Cl)c(C#N)c3c2OC(C)CN(C2CN(S(=O)(=O)N(C)C)C2)C3)c2ncnc(N)c12` (single isomer, unassigned) [Example 106, 3-[9-[1-(4-amino-3-methyl-1H-pyrazolo[3,4-d]pyrimidin-1-yl)ethyl]-7-chloro-6-cyano-2-methyl-2,3-dihydro-1,4-benzoxazepin-4(5H)-yl]-N,N-dimethylazetidine-1-sulfonamide] gave a pIC50 of at least 7.00.
